Measured values: PMC9597602, “Metal Complexes as Antifungals? From a Crowd-Sourced Compound Library to the First In Vivo Experiments” (JACS Au, 2022)
Read-outs that look alike come from different tables or passages of the source.

How the values were obtained:
[1] = tested on: HEK-293 human embryonic kidney cells ATCC CRL-1573
Description: The cells were incubated together with the compounds for 20 h at 37 °C in 5% CO2. […] Tamoxifen (Sigma T5648) was used as internal control on each plate.

[2] = tested on: methicillin-resistant Staphylococcus aureus ATCC 43300; assay: CO-ADD antibacterial MIC assay; type: cell-based; conditions: initial CO-ADD dose-response screening; ≥80% growth inhibition
How it was run: (§1)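 Mid-log cultures in cation-adjusted Mueller Hinton broth at 5 × 10^5 CFU/mL, incubated with compound 18 h at 37 °C without shaking; growth read as OD600. MIC is the lowest concentration giving ≥80% growth inhibition; two technical replicates in two independent assays (n = 4).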

[3] = tested on: Acinetobacter baumannii ATCC 19606 type strain; assay: CO-ADD antibacterial MIC assay; type: cell-based; conditions: initial CO-ADD dose-response screening; ≥80% growth inhibition
How it was run: as §1

[4] = tested on: G. mellonella larvae; assay: Galleria mellonella in vivo toxicity assay; conditions: 10 μL of the highest concentration injected, monitored 6 days
Description: Based on criteria of overall antifungal activity, cytotoxicity, and hemolysis as well as compound availability, we selected compounds Co1, Ag2, Eu1, Ir1, Pt1, Pt2, Pt4, Pt5, Au1, Au2, and Au4 to conduct a preliminary in vivo toxicity assay. […] The compounds were dissolved in DMSO and diluted to the highest possible final concentration (Table 3). The larvae were then monitored for 6 days for survival and health using the G. mellonella Health Index Scoring System.[111] […] For the other compounds, no detrimental effects could be observed in the larvae over the monitoring period. […] Nevertheless, factors such as the metabolism, excretion, and/or accumulation of the various metal complexes and their metabolites will still need to be studied more rigorously in rodent models if they are to be advanced into the preclinical pipeline.
The toxicity of compounds was tested in vivo using the G. mellonella model using our previously described methods,[61] Briefly, G. mellonella larvae were reared in a controlled environmental room at Macquarie University, Sydney, Australia, at 30 °C and 65% humidity with a 12-h light/dark cycle. Larvae (200–250 mg) were individually injected with 10 μL of chemical into the last right pro-leg using a 100 μL syringe (Hamilton Ltd.). Each compound was dissolved in DMSO at the maximum concentration given in Table 3 and also diluted in water to final concentrations of 100, 10, and 1 μM. We injected five larvae in triplicate for each of the four dilutions for each compound. Larvae injected with different dilutions of DMSO (10^–1, 10^–2, and 10^–3) were included as negative controls. Following injection, the larvae were incubated at 30 °C and monitored every 24 h for 6 days. Larval performance was assessed according to the G. mellonella Health Index Scoring System.[111] The experiments were repeated over three separate days for biological triplicates.

[5] = tested on: Candida albicans ATCC 90028 NCCLS11; assay: Antifungal MIC assay; type: cell-based; conditions: for MIC Ca: initial CO-ADD dose-response screening, ≥80% growth inhibition; for MIC50 Candida albicans ATCC 90028: 50% inhibition, MIC score 2
How it was run: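 Broth microdilution in YNB medium, final inoculum 2.5 × 10^3 CFU/mL from colonies grown on YPD agar (30 °C, 3 days). Static incubation, 35 °C, 36 h. MIC = lowest concentration inhibiting growth ≥80%, per CLSI M27 scoring.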

[6] = tested on: Candida auris CBS12373 KCTC 17810; assay: Antifungal MIC assay, extended panel; type: cell-based; conditions: extended panel; for MIC / MIC Candida auris CBS12373: second batch, ≥80 or ≥50% inhibition; for MIC: read-out: MIC* Candida auris CBS12373; for MIC50 Candida auris CBS12373: 50% inhibition, MIC score 2
How it was run: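 Yeast was grown for 3 days at 30 °C on YPD agar. Five colonies were suspended to 1 × 10^6 to 5 × 10^6 CFU/mL, checked by OD530, diluted in YNB medium, and dispensed onto compound-loaded 384-well NBS plates at 2.5 × 10^3 CFU/mL in 50 μL. Plates were covered and incubated without shaking at 35 °C for 36 h to determine MIC.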

[7] = tested on: Candida auris CBS10913 JCM 15448; assay: Antifungal MIC assay, extended panel; type: cell-based; conditions: extended panel; for MIC Candida auris CBS10913 / MIC: second batch, ≥80 or ≥50% inhibition; for MIC: read-out: MIC* Candida auris CBS10913; for MIC50 Candida auris CBS10913: 50% inhibition, MIC score 2
How it was run: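 Yeast strains were grown on YPD agar at 30 °C for 3 days. Five colonies were suspended to 1 × 10^6 to 5 × 10^6 CFU/mL (by OD530), diluted in YNB medium, and dispensed into compound-containing 384-well NBS plates to 2.5 × 10^3 CFU/mL in 50 μL. Covered plates were held at 35 °C for 36 h without shaking, and MIC was determined by broth dilution.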

[8] = tested on: human red blood cells; type: cell-based
How it was run: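 Washed human erythrocytes at 0.5 × 10^8 cells/mL incubated with compound, then centrifuged. Haemolysis read as supernatant OD405, normalised to untreated cells (0%) and 1% Triton X-100 (100%), with melittin as internal plate control.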

[9] = read-out: HEK293 CC50, ranges obtained upon retesting, new batch
[10] = read-out: HEK CC50, initial CO-ADD screening, 20 h
[11] = extended panel, second batch, ≥80 or ≥50% inhibition
[12] = initial CO-ADD screening, 1 h, 10% hemolysis
[13] = ranges obtained upon retesting, new batch

MIC MRSA (Sa) [2]	MIC Ab [3]	MIC [6]	RBC HC10 [8, 13]	MIC50 Candida albicans ATCC 90028 ([5]; extended panel)	MIC50 Candida auris CBS12373 [6]	MIC [7]	MIC50 Candida auris CBS10913 [7]	MIC ([5]; extended panel, second batch, ≥80 or ≥50% inhibition, read-out: MIC* Candida albicans ATCC 90028)	SMILES	CC50 [1, 9]	CC50 [1, 10]	toxicity [4]	MIC Candida albicans ATCC 90028 [5, 11]	MIC Ca [5]	MIC Candida auris CBS10913 [7]	RBC HC10 [8, 12]	HEK CC50 ([1]; initial CO-ADD screening, 20 h)	MIC Candida auris CBS12373 [6]	cytotoxicity: none up to stated concentration ([1]; retest)	hemolysis: none up to stated concentration ([8]; retest)
>20 µM	>20 µM	0.006 µM	> 200 µM	≤0.006 to 0.012 µM	≤ 0.006 µM	0.006 µM	≤ 0.006 µM		Cc1ccc2ccc3ccc(C)nc3c2n1.Cc1ccc2ccc3ccc(C)nc3c2n1.O=C([O][Eu]([O]C(=O)c1ccccc1F)[O]C(=O)c1ccccc1F)c1ccccc1F [Eu1]	> 200 µM	> 20 µM	nontoxic	≤0.006 to 0.012 µM			>20 µM			> 200 µM	> 200 µM
>20 µM	>20 µM		> 100 µM						CC(C)C([O][Pt][Cl])C1=CCCC=CCC1 (centres unmarked) [Pt4]	> 100 µM	> 20 µM	nontoxic	6.25 to 12.5 µM	10 µM	6.25 to 12.5 µM	>20 µM		1.56 to 3.12 µM		
>32 µg/mL	>32 µg/mL		> 200 µM	≤0.006 to 0.098 µM	≤0.006 to 0.098 µM		≤0.006 to 0.049 µM		O=C([O][Ag])c1ccc(N2N=C(/C=C/C=C/c3ccccc3)CC2/C=C/c2ccccc2)cc1.O=C([O][Ag])c1ccc(N2N=C(/C=C/C=C/c3ccccc3)CC2/C=C/c2ccccc2)cc1 (racemic) [Ag2, 1-(4-Carboxyphenyl)-3-{(1E,3E)-4-phenylbuta-1,3-dien-1-yl}-5-{(E)-styryl}-2-pyrazoline silver(I) complex]	6 to 7 µM		nontoxic	≤0.006 to 0.098 µM	≤0.25 µg/mL	0.006 to 0.098 µM	>32 µg/mL	>32 µg/mL	0.006 to 0.098 µM		
>32 µg/mL	>32 µg/mL	≤0.006 µM	13 to 154 µM	≤ 0.006 µM	≤ 0.006 µM	0.006 µM	≤ 0.006 µM	≤0.006 µM	COc1ccc(/C=C/C2=NN(c3ccc(C(=O)[O][Ag])cc3)C(c3ccc(OC)c(OC)c3)C2)cc1OC.COc1ccc(/C=C/C2=NN(c3ccc(C(=O)[O][Ag])cc3)C(c3ccc(OC)c(OC)c3)C2)cc1OC (racemic) [Ag1, (Ε)-1-(4-Carboxyphenyl)-5-(3,4-dimethoxyphenyl)-3-(3,4-dimethoxystyryl)-2-pyrazoline silver(I) complex]	3 to 4 µM				≤0.25 µg/mL		>32 µg/mL	>32 µg/mL			

SMILES	MIC MRSA (Sa) [2]	MIC Ab [3]	MIC [6]	RBC HC10 [8, 13]	MIC50 Candida albicans ATCC 90028 ([5]; extended panel)	MIC50 Candida auris CBS12373 [6]	MIC [7]	MIC50 Candida auris CBS10913 [7]	MIC ([5]; extended panel, second batch, ≥80 or ≥50% inhibition, read-out: MIC* Candida albicans ATCC 90028)	CC50 [1, 9]	CC50 [1, 10]	toxicity [4]	MIC Candida albicans ATCC 90028 [5, 11]	MIC Ca [5]	MIC Candida auris CBS10913 [7]	RBC HC10 [8, 12]	HEK CC50 ([1]; initial CO-ADD screening, 20 h)	MIC Candida auris CBS12373 [6]	cytotoxicity: none up to stated concentration ([1]; retest)	hemolysis: none up to stated concentration ([8]; retest)
C1=CCCC=CCC1.[Cl][Pt][Cl] [Pt1]	1.25 µM	>20 µM	3.13 µM	> 100 µM						> 100 µM	> 20 µM	nontoxic	12.5 to 25 µM	10 µM	6.25 to 12.5 µM	>20 µM				
CC(=NN=C(N)[S-])C(C)=NN=C(N)[S-].O=[N+]([O-])[O-].[Co+3].c1c[nH]cn1.c1c[nH]cn1 [Co1]	>32 µg/mL	>32 µg/mL		> 100 µM						> 100 µM		nontoxic	0.78 to 1.56 µM	0.5 µg/mL	0.39 to 0.78 µM	>32 µg/mL	>32 µg/mL	0.39 to 0.78 µM		
C1=CCCC=CCC1.[I][Pt][I] [Pt2]	0.625 µM	>20 µM		> 100 µM			12.5 µM			> 100 µM	> 20 µM	nontoxic	12.5 to 25 µM	10 µM		>20 µM		3.13 to 6.25 µM		
